Source: patent publication US20170237129A1, “Quaternary Ammonium Halides With Ether Functional Groups For Use As Battery Electrolytes” (Albemarle Corporation, priority 2014, published 2017)

Key:
Assay type in all cases: physicochemical
[1] = Free bromine in electrolyte with chloroquat or bromoquat (Example 8); settings: 0.84 M zinc bromide, 0.8 M quat, 1.44 M bromine; stirred 24 hrs at 35° C.
Procedure: Chloride ions are added to the electrolyte in amounts sufficient to reduce the amount of free bromine present and increase the electrolyte conductivity during charging of the cell, Chloride ions in the electrolyte may come from zinc chloride or quaternary ammonium chloride complexing agent. Experiment 1 of Example 8: An aqueous electrolyte system was prepared having 0.84 M zinc bromide, 0.8 M chioroquat (N-methyl, N-butyl pyrrolidinium chloride) and 1.44 M bromine. After the sample was stirred for 24 hrs at 35° C., the amount of free bromine present in the electrolyte was 0.26%. Experiment 2 of Example 8: An aqueous electrolyte system was prepared having 0.84 M zinc bromide, 0.8 M bromoquat (N-methyl, N-butyl pyrrolidinium bromide) and 1.44 M bromine. After the sample was stirred for 24 hrs at 35° C., the amount of free bromine present in the electrolyte was 0.25%.

[2] = Measurement of free bromine in aqueous phase; settings: stirred 24 hrs, top aqueous phase, wt %
Description: The forward operation of a bromine-containing battery generally involves the conversion of elemental bromine to ionic bromine. The quat/Br2 complex results from an equilibrium reaction in which the Br2 is released from the complex as the concentration of free Br2 in the aqueous electrolyte drops during battery operation. In its fully charged state, the electrolyte solution inevitably contains some degree of uncomplexed bromine. A measure of a quat's ability to complex elemental bromine is the amount of elemental bromine left in solution when the complexation reaction proceeds to equilibrium. Such bromine is referred to as “free bromine.” Measurement of free bromine in aqueous phase is set forth in Example 1.
Two slightly different methods were used to prepare the electrolyte compositions, A) one containing 0.7M quat and B) the other containing 0.8M quat. In composition A, 2.0 moles of bromine was added to an aqueous solution containing 0.5 moles of zinc bromide and 0.7 moles of the quat. The two-phase mixture was stirred for 24 hrs. and then the phases were allowed to settle. The top aqueous phase was sampled for free bromine measurement. In composition B, 1.44 moles of bromine was added to an aqueous solution containing 0.5 moles of zinc bromide, 0.4 moles of zinc chloride and 0.8 moles of the quat. The top aqueous phase obtained after stirring for 24 hrs. was used for free bromine measurement.
A 250-ml Erlenmeyer flask was charged with 50 ml of deionized water and weighed (A). A sample of the clear aqueous phase was passed through glass wool to remove any suspended organic phase and then added to the Erlenmeyer flask. The flask was weighed again (B) and the difference in weight (B-A) was noted as the weight of the sample. About 20 ml of 20% potassium iodide solution followed by about 5 ml of starch solution was added to the flask. The resulting dark mixture was titrated against 0.02N sodium thiosulfate solution. The end-point was the disappearance of purple color. Free bromine (wt %) was calculated in the following manner:
Wt % free Br2=Volume (ml) of sodium Thiosulfate×Normality of Sodium thisosulfate/Sample Weight.

[3] = Cloud point determination; settings: 0.7M quat in 2.5M zinc bromide water solution
Procedure: By “cloud point” is meant the cloud point of an aqueous solution containing 0.7 M complexing agent and 2.5 M zinc bromide.
A 0.7M quaternary ammonium bromide in 2.5M Zinc Bromide water solution was prepared. • 2. The solution was transferred to a jacketed flask with a stirring bar and temperature monitor. • 3. The solution was warmed to 15° C. above the expected cloud point. If necessary, any moisture or impurities were removed by filtration. • 4. The solution was stirred, with speed adjustment to about 250 rpm, while avoiding the formation of bubbles. • 5. The solution was cooled gradually (cooling rate of about 1° C./5 min). • 6. The sample was inspected carefully for signs of cloudiness, and the temperature at which cloudiness was observed was recorded to the nearest 0.1° C.

[4] = 0.7M quat (composition A: 2.0 moles bromine, 0.5 moles zinc bromide, 0.7 moles quat)
[5] = 0.8M quat (composition B: 1.44 moles bromine, 0.5 moles zinc bromide, 0.4 moles zinc chloride, 0.8 moles quat)

Row | Compound | Solubility in ZnBr2 Cloud Point [3] | Free Br2 [2, 4] | Free Br2 [2, 5] | further results
1 | CCCC[N+]1(C)CCCC1.[Cl-] [chioroquat, N-methyl, N-butyl pyrrolidinium chloride] |  |  |  | amount of free bromine present in the electrolyte [1]: 0.26%
2 | CC[N+](CC)(CC)CCOC.[Br-] [Compound 2, (2-methoxyethyl)-triethylammonium bromide] | 0.7M, <-10.5 C. | 0.7M 0.658% | 0.8M 0.467% | 
3 | CCC[N+](CC)(CC)CC.[Br-] [Compound 5, triethylpropylammonium bromide] | 0.7M, 41.2 C. | 0.7M 0.089% |  | Free Br2 ([2]; 0.7M quat (composition A: 2.0 moles bromine, 0.5 moles zinc bromide, 0.7 moles quat), listed as compound 5): 0.089%
4 | CCCC[N+]1(C)CCCC1.[Br-] [bromoquat, N-methyl, N-butyl pyrrolidinium bromide] |  |  |  | amount of free bromine present in the electrolyte [1]: 0.25%

Now from value to compound, other results behind:

Row | Solubility in ZnBr2 Cloud Point [3] | Compound | Free Br2 [2, 4] | Free Br2 [2, 5] | further results
5 | 0.7M, <-10.5 C. | CC[N+](C)(CC)CCOC.[Br-] [Compound 4, diethylmethyl-(2-methoxyethyl)ammonium bromide] | 0.7M 0.70% |  | 
6 | 0.7M, 45.8 C. | CCC[N+]1(CC)CCCCC1 [Compound 10, EthyPropyl Piperidinium Bromide] |  | 0.8M 0.026% | Free Br2 ([2]; 0.8M quat (composition B: 1.44 moles bromine, 0.5 moles zinc bromide, 0.4 moles zinc chloride, 0.8 moles quat), listed as compound 10): 0.026%
7 | 0.7M, 29 C. | CCCC[N+](C)(C)CCOC.[Br-] [Compound 1, Dimethylbutylether Quat Bromide] | 0.7M 0.28% |  | 
8 | 0.7M, 11.9 C. | CC[N+]1(CC)CCCCC1.[Br-] [Compound 9, Diethyl Piperidinium Bromide] |  | 0.8M 0.26% | Free Br2 ([2]; 0.8M quat (composition B: 1.44 moles bromine, 0.5 moles zinc bromide, 0.4 moles zinc chloride, 0.8 moles quat), listed as compound 9): 0.26%
